Read-outs that look alike come from different tables or passages of the source.
Test system: NLRP3
Assay: IL-1β secretion assay in PMA-differentiated, LPS/nigericin-stimulated THP-1 cells (384-well, ELISA read-out)
Assay type: cell-based, human
Summary of the method: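 Secreted IL-1β quantified by capture ELISA from supernatants of PMA-differentiated THP-1 cells (30K per well). Sequence: LPS 25 ng/mL priming 2 h, compound 1 h, nigericin 2 h; dose-responses normalized between high (LPS plus 5 μM nigericin) and low (LPS alone) controls.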

[1] = Homo sapiens, THP-1, IL-1β secretion, PMA-differentiated THP-1 cells, LPS then nigericin stimulation, ELISA read at 450 nm, read-out: Activity
[2] = Homo sapiens, THP-1, Table 4, IL-1β secretion, LPS/nigericin-stimulated THP-1 cells, read-out: IC50
[3] = IL-1β secretion, PMA-differentiated THP-1 cells, LPS then nigericin stimulation, ELISA read at 450 nm, read-out: Activity
[4] = Table 4, IL-1β secretion, LPS/nigericin-stimulated THP-1 cells, read-out: IC50

Compound | IC50 [1] | IC50 [2] | IC50 [3] | IC50 [4]
O=C(CN1CC2(CC2)c2cc(Br)ccc2C1=O)N[C@@H]1C[C@@H]2CC[C@H]1O2 [Example 16, 2-(6-bromo-1-oxospiro[3H-isoquinoline-4,1′-cyclopropane]-2-yl)-N-[(1R,2R,4S)-7-oxabicyclo[2.2.1]heptan-2-yl]acetamide] | < 10000 nM | 9830 nM |  | 
O=C(CN1CC2(CC2)c2cc(Br)ccc2C1=O)Nc1ncc2ncsc2n1 [Example 409, 2-(6-bromo-1-oxospiro[3H-isoquinoline-4,1′-cyclopropane]-2-yl)-N-([1,3]thiazolo[5,4-d]pyrimidin-5-yl)acetamide] |  | 1370 nM |  | 
O=C(CN1CC2(CC2)c2cc(CC3CC3)ccc2C1=O)Nc1ncc(F)cn1 [Example 423, 2-[6-(cyclopropylmethyl)-1-oxospiro[3H-isoquinoline-4,1′-cyclopropane]-2-yl]-N-(5-fluoropyrimidin-2-yl)acetamide] |  | 18400 nM |  | 
Cc1cncc(NC(=O)CN2CC3(CC3)c3cc(Br)ccc3C2=O)n1 [Example 171, 2-(6-bromo-1-oxospiro[3H-isoquinoline-4,1′-cyclopropane]-2-yl)-N-(6-methylpyrazin-2-yl)acetamide] | 10000 to 15000 nM | 11000 nM |  | 
Cn1ncc2cnc(NC(=O)CN3CC4(CC4)c4cc(Br)ccc4C3=O)nc21 [Example 408, 2-(6-bromo-1-oxospiro[3H-isoquinoline-4,1′-cyclopropane]-2-yl)-N-(1-methylpyrazolo[3,4-d]pyrimidin-6-yl)acetamide] |  | 827 nM |  | 
O=C(CN1CC2(CC2)c2cc(Br)ccc2C1=O)Nc1ncc(C2COC2)cn1 [Example 332, 2-(6-bromo-1-oxospiro[3H-isoquinoline-4,1′-cyclopropane]-2-yl)-N-[5-(oxetan-3-yl)pyrimidin-2-yl]acetamide] |  | 768 nM |  | 
O=C(CN1CC2(CC2)c2cc(Br)ccc2C1=O)Nc1nc2cc(C(F)(F)F)ccc2o1 [Example 358, 2-(6-bromo-1-oxospiro[3H-isoquinoline-4,1′-cyclopropane]-2-yl)-N-[5-(trifluoromethyl)-1,3-benzoxazol-2-yl]acetamide] |  | 1290 nM |  | 
O=C(CN1CC2(CC2)c2cc(Br)ccc2C1=O)Nc1nc2ccnn2cc1F [Example 333, 2-(6-bromo-1-oxospiro[3H-isoquinoline-4,1′-cyclopropane]-2-yl)-N-(6-fluoropyrazolo[1,5-a]pyrimidin-5-yl)acetamide] |  | 895 nM |  | 
O=C(CN1CC2(CC2)c2cc(Br)ccc2C1=O)NC1CS(=O)(=O)C1 [Example 118, 2-(6-bromo-1-oxospiro[3H-isoquinoline-4,1′-cyclopropane]-2-yl)-N-(1,1-dioxothietan-3-yl)acetamide] | > 15000 nM | 22400 nM |  | 
CC(C)(O)CNC(=O)CN1CC2(CC2)c2cc(Br)ccc2C1=O [Example 63, 2-(6-bromo-1-oxo-spiro[3H-isoquinoline-4,1′-cyclopropane]-2-yl)-N-(2-hydroxy-2-methyl-propyl)acetamide] | > 15000 nM | 16500 nM |  | 
Cc1nc(-c2cccc(NC(=O)CN3CC4(CC4)c4cc(Br)ccc4C3=O)c2)cs1 [Example 142, 2-(6-bromo-1-oxospiro[3H-isoquinoline-4,1′-cyclopropane]-2-yl)-N-[3-(2-methyl-1,3-thiazol-4-yl)phenyl]acetamide] | < 10000 nM | 1780 nM |  | 
O=C(CN1CC2(CC2)c2cc(Br)ccc2C1=O)Nc1nn2ccccc2c1F [Example 403, 2-(6-bromo-1-oxospiro[3H-isoquinoline-4,1′-cyclopropane]-2-yl)-N-(3-fluoropyrazolo[1,5-a]pyridin-2-yl)acetamide] |  | 2320 nM |  | 
O=C(CN1C[C@@]2(C[C@@H]2F)c2cc(Br)ccc2C1=O)Nc1ncc(F)cn1 (single isomer, unassigned) [Example 78] | < 10000 nM | 208 nM |  | 
O=C(CN1CC2(CC2)c2cc(C3CC3(F)F)ccc2C1=O)Nc1ncc(F)cn1 (stereo not shown) [Example 88, 2-[6-(2,2-difluorocyclopropyl)-1-oxo-spiro[3H-isoquinoline-4,1′-cyclopropane]-2-yl]-N-(5-fluoropyrimidin-2-yl)acetamide] | < 10000 nM | 3610 nM |  | 
O=C(CN1CC2(CC2)c2cc(Br)ccc2C1=O)NC1CC(O)(C(F)(F)F)C1 (stereo not drawn) [Example 55, 2-(6-bromo-1-oxo-spiro[3H-isoquinoline-4,1′-cyclopropane]-2-yl)-N-[cis-3-hydroxy-3-(trifluoromethyl)cyclobutyl]acetamide] | < 10000 nM | 861 nM |  | 
O=C(CN1CC2(CC2)c2cc(Br)ccc2C1=O)Nc1nc2ccc(F)cn2n1 [Example 263, 2-(6-bromo-1-oxospiro[3H-isoquinoline-4,1′-cyclopropane]-2-yl)-N-(6-fluoro-[1,2,4]triazolo[1,5-a]pyridin-2-yl)acetamide] | < 10000 nM | 281 nM |  | 

Compound | IC50 [1] | IC50 [2] | IC50 [3] | IC50 [4]
Cc1c(C#N)cnc(NC(=O)CN2CC3(CC3)c3cc(Br)ccc3C2=O)c1F [Example 389, 2-(6-bromo-1-oxospiro[3H-isoquinoline-4,1′-cyclopropane]-2-yl)-N-(5-cyano-3-fluoro-4-methylpyridin-2-yl)acetamide] |  | 546 nM |  | 
CCN1CCCC(NC(=O)CN2CC3(CC3)c3cc(Br)ccc3C2=O)C1 (stereo not shown) [Example 18, 2-(6-bromo-1-oxospiro[3H-isoquinoline-4,1′-cyclopropane]-2-yl)-N-(1-ethylpiperidin-3-yl)acetamide] | < 10000 nM | 1450 nM |  | 
O=C(CN1CC2(CC2)c2cc(Br)ccc2C1=O)Nc1nccn2cnnc12 [Example 350, 2-(6-bromo-1-oxospiro[3H-isoquinoline-4,1′-cyclopropane]-2-yl)-N-([1,2,4]triazolo[4,3-a]pyrazin-8-yl)acetamide] |  | 3590 nM |  | 
O=C(CN1CC2(CC2)c2cc(Br)ccc2C1=O)NCc1ncco1 [Example 119, 2-(6-bromo-1-oxospiro[3H-isoquinoline-4,1′-cyclopropane]-2-yl)-N-(1,3-oxazol-2-ylmethyl)acetamide] | > 15000 nM | 30100 nM |  | 
C[C@@H]1[C@H](F)[C@]12CN(CC(=O)Nc1ncc(F)cn1)C(=O)c1ccc(Br)cc12 (single isomer, unassigned) [Example 278, 2-[(2′s,3′s,4r)-6-bromo-2′-fluoro-3′-methyl-1-oxospiro[3H-isoquinoline-4,1′-cyclopropane]-2-yl]-N-(5-fluoropyrimidin-2-yl)acetamide] |  |  | < 10000 nM | 1790 nM
O=C(CN1CC2(CC2)c2cc(Br)ccc2C1=O)Nc1ccc(Cl)cn1 [Example 196, 2-(6-bromo-1-oxospiro[3H-isoquinoline-4,1′-cyclopropane]-2-yl)-N-(5-chloropyridin-2-yl)acetamide] | < 10000 nM | 516 nM |  | 
N#Cc1cccc2oc(NC(=O)CN3CC4(CC4)c4cc(Br)ccc4C3=O)nc12 [Example 356, 2-(6-bromo-1-oxospiro[3H-isoquinoline-4,1′-cyclopropane]-2-yl)-N-(4-cyano-1,3-benzoxazol-2-yl)acetamide] |  | 2300 nM |  | 
N#Cc1cnc(NC(=O)CN2C[C@]3(C[C@H]3F)c3cc(Br)ccc3C2=O)c(F)c1 [Example 275, 2-[(2′r,4s)-6-bromo-2′-fluoro-1-oxospiro[3H-isoquinoline-4,1′-cyclopropane]-2-yl]-N-(5-cyano-3-fluoropyridin-2-yl)acetamide] | < 10000 nM | 70 nM |  | 
O=C(CN1C[C@@]2(C[C@@H]2Cl)c2cc(Br)ccc2C1=O)Nc1ncc(F)cn1 (single isomer, unassigned) [Example 284, 2-[(2′r,4s)-6-bromo-2′-chloro-1-oxospiro[3H-isoquinoline-4,1′-cyclopropane]-2-yl]-N-(5-fluoropyrimidin-2-yl)acetamide] |  |  | < 10000 nM | 50 nM
O=C(CN1CC2(CC2)c2cc(Br)ccc2C1=O)NCc1cccnc1C(F)(F)F [Example 151] | < 10000 nM | 9060 nM |  | 
Cn1ncc2cc(NC(=O)CN3CC4(CC4)c4cc(Br)ccc4C3=O)ccc21 [Example 141, 2-(6-bromo-1-oxospiro[3H-isoquinoline-4,1′-cyclopropane]-2-yl)-N-(1-methylindazol-5-yl)acetamide] | < 10000 nM | 1230 nM |  | 
CCN1CC[C@@H](NC(=O)CN2CC3(CC3)c3cc(Br)ccc3C2=O)C1 [Example 384, 2-(6-bromo-1-oxospiro[3H-isoquinoline-4,1′-cyclopropane]-2-yl)-N-[(3R)-1-ethylpyrrolidin-3-yl]acetamide] |  | 11600 nM |  | 
O=C(CN1CC2(CC2)c2c(ccc(C3C[C@H]3F)c2F)C1=O)Nc1ncc(F)cn1 (single isomer, unassigned) [Example 304, 2-[5-fluoro-6-[(1r,2r)-2-fluorocyclopropyl]-1-oxospiro[3H-isoquinoline-4-1′-cyclopropane]-2-yl]-N-(5-fluoropyrimidin-2-yl)acetamide] |  |  |  | 2560 nM
CC1(c2ccc3c(c2)C2(CC2)CN(CC(=O)Nc2ncc(F)cn2)C3=O)CC1 [Example 97, N-(5-fluoropyrimidin-2-yl)-2-[6-(1-methylcyclopropyl)-1-oxospiro[3H-isoquinoline-4,1′-cyclopropane]-2-yl]acetamide] | < 10000 nM | 1220 nM |  | 
O=C(CN1CC(C(F)(F)F)c2cc(I)ccc2C1=O)Nc1ncc(F)cn1 (stereo not shown) [Example 301, N-(5-fluoropyrimidin-2-yl)-2-[6-iodo-1-oxo-4-(trifluoromethyl)-3,4-dihydroisoquinolin-2-yl]acetamide] | < 10000 nM | 27 nM |  | 
O=C(CN1C[C@@]2(C[C@@H]2F)c2cc(C(F)(F)F)ccc2C1=O)Nc1ncc(F)cn1 (single isomer, unassigned) [Example 234, 2-[(2′s,4r)-2′-fluoro-1-oxo-6-(trifluoromethyl)spiro[3H-isoquinoline-4,1′-cyclopropane]-2-yl]-N-(5-fluoropyrimidin-2-yl)acetamide] | < 10000 nM |  |  | 78 nM
